Results on nine compounds are retold here after patent US11505537B2, “Compositions comprising methylphenidate-prodrugs, processes of making and using the same” (KemPharm, Inc., priority 2016, dated 2022).

The nature of data set [1]: Human single-dose PK of 32 mg d-MPH-CO2CH2-nicotinoyl-L-Ser oral liquid, fasted. The settings on record: single 32 mg oral liquid. From the text: Twenty-four (24) healthy volunteers were enrolled in this open-label, single-dose, two-treatment, two-period PK trial.
Data set [2] is described as follows: Oral PK in rats of d- and l-isomers (unconjugated MPH, L-Ser and L-Thr conjugates) at equimolar doses. The following applies: for Cmax: equimolar doses; for d:l Ratio Tmax / d:l Ratio AUC / d:l Ratio Cmax: d-isomer vs l-isomer; for d:l Ratio AUC: mean AUC; for d:l Ratio Cmax: mean Cmax. How it is done:
In another embodiment, the following compounds were dosed orally in rats at equimolar doses: d-MPH.HCl, l-MPH.HCl, d-MPH-CO2CH2-nicotinoyl-L-Ser, l-MPH-CO2CH2-nicotinoyl-L-Ser, d-MPH-CO2CH2-nicotinoyl-L-Thr, and l-MPH-CO2CH2-nicotinoyl-L-Thr.

Data set [3] can be described thus: Human single-dose PK of 60 mg d-MPH-CO2CH2-nicotinoyl-L-Ser chloride capsules, fasted and fed. The following applies: for AUC(0-inf) / half-life / AUC(0-t) / Tmax / Cmax: both sexes, plasma, analyte d-MPH-CO2CH2-nicotinoyl-L-Ser; for Tmax: read-out: Tmax (median). It is filed as in vivo. How it is done:
A human study was conducted to evaluate the pharmacokinetics of d-MPH-CO2CH2-nicotinoyl-L-Ser and d-methylphenidate after oral administration of 60 mg d-MPH-CO2CH2-nicotinoyl-L-Ser chloride gelatin capsules in healthy volunteers under fasted and fed conditions. Fourteen (14) subjects were enrolled in this phase 1, open-label, single dose, two-period, randomized, crossover study. Eligible subjects included healthy male and female volunteers between the age of 18 and 55 years with a body mass index (BMI) between 18 and 32 kg/m^2 and a body weight between 50 and 100 kg at screening.
Two single-dose treatments were administered with a minimum 96-hour washout period between doses. Blood samples for pharmacokinetics were collected pre-dose and at 0.5, 0.75, 1, 1.5, 2, 2.5, 3, 3.5, 4.5, 6, 8, 10, 12, 16, 24, and 36 hours±5 minutes post-dose, in each treatment period.

The nature of data set [4]: Human single- and multiple-dose PK of d-MPH HCl/conjugate dose mixtures vs Concerta 54 mg, once daily for 7 days, fasted. It is filed as in vivo. From the text:
Forty-eight (48) healthy volunteers (12 per treatment arm) were enrolled in this open-label, single- and multiple-dose, four-treatment, one-period parallel PK trial.
Eligible subjects included healthy male and female volunteers between the age of 18 and 55 years with a body mass index (BMI) between 18 and 32 kg/m^2 and a body weight between 60 and 100 kg at screening. The primary objective of the study was to assess the single and multiple dose pharmacokinetics of d-MPH-CO2CH2-nicotinoyl-L-Ser and d-methylphenidate following multiple doses of different combinations of d-methylphenidate HCl/d-MPH-CO2CH2-nicotinoyl-L-Ser Chloride administered orally once per day for 7 days in healthy volunteers under fasted conditions, compared to the same dosing regimen with a Concerta® tablet. After the 1st dose of study drug (Day 1), blood samples for PK were collected at pre-dose (0 hour; within 1 hour prior to dosing), and at 0.5, 1, 1.5, 2, 2.5, 3, 4.5, 6, 7, 7.5, 8, 8.5, 9, 10, 12, 13, and 24 hours±5 minutes post-dose. The 24-hr post-dose blood sample was taken before administration of the 2nd dose of study drug. After the 2nd, 3rd, 4th, 5th and 6th dose of study drug (Days 2-6), blood samples were collected at pre-dose (within 10 minutes prior to dosing), and at 1.5 and 8 hours±5 minutes post-dose. The pre-dose sample on Day 2 was the same as the 24-hour post-dose sample after the 1st dose. After the last dose (7th dose) of study drug (Day 7), blood samples for PK were collected at pre-dose (within 10 minutes prior to dosing), and at 0.5, 1, 1.5, 2, 2.5, 3, 4.5, 6, 7, 7.5, 8, 8.5, 9, 10, 12, 13, 24, 36, 48, 60 and 72 hours±5 minutes post-dose.

Data set [5] can be described thus: Oral PK in rats, conjugate vs unconjugated d-methylphenidate (LC-MS/MS). The following applies: analyte d-methylphenidate, […] d-MPH content, hydrochloride. It is filed as in vivo. How it is done: (§1) The plasma concentrations of d-methylphenidate were measured by LC-MS/MS over time. The oral plasma concentrations of d-methylphenidate released from d-threo-MPH-CO2CH2-nicotinoyl-L-Ser were compared with unconjugated d-methylphenidate after oral administration in rats.
The human equivalent dose for the conjugate was 0.8 mg/kg as compared to 0.4 mg/kg for unconjugated d-methylphenidate.

A short description of data set [6]: Intravenous PK in rats, conjugate vs unconjugated d-methylphenidate. The settings on record: analyte d-methylphenidate. It is filed as in vivo.
Data set [7] can be described thus: Intranasal PK in rats, conjugate vs unconjugated d-methylphenidate. The settings on record: analyte d-methylphenidate. The format is in vivo. The procedure:
as §1
As shown in FIG. 5 and Table 10, after 4.75 mg conjugate was intranasally administered to rats, plasma concentrations of d-methylphenidate released from the conjugate are substantially flat from about 0 to about 1 hour following intranasal administration in a rat. […] Conjugated d-methylphenidate was about 6% AUC and 5% Cmax of unconjugated d-methylphenidate.

The nature of data set [8]: Solubility in IPA/IPAc inferred from recrystallization. It is filed as physicochemical. The following applies: isopropylalcohol/isopropylacetate, from recrystallization yields. The text has this: In one embodiment, the conjugate d/l-MPH-CO2CH2-nicotinoyl-L-Ser was recrystallized from a mixture (1:1) of isopropylalcohol (IPA) and isopropylacetate (IPAc) yielding approximately 45.2% of product (purity of about 98% by HPLC). A similar amount of d-MPH-CO2CH2-nicotinoyl-L-Ser recrystallized from IPA and IPAc (2:1) yielded approximately 81.5% of product (purity of about 97.6% by HPLC).

Where a name gives a salt, the structure may show the parent alone. Read-outs that look alike come from different tables or passages of the source.

Turning to `COC(=O)[C@H](c1ccccc1)[C@H]1CCCCN1C(=O)OC[n+]1cccc(C(=O)N[C@@H](CO)C(=O)O)c1` [d-MPH-CO2CH2-nicotinoyl-L-Ser, d-methylphenidate-CO2CH2-nicotinoyl-L-Ser], the “Plasma concentration of intact prodrug at 24 hours post dose” value in data set [1] is reported as “about 0”. Besides, the “Time until which plasma concentrations of intact prodrug increased” value in data set [1] (N=24) was “about 2 hours”.

For orientation: AUC means concentration integrated over time. Low values mean low exposure, high ones high exposure. In general, Tmax refers to the time at which the peak concentration occurs. As usually defined, the Cmax is the highest concentration seen after dosing. With `COC(=O)[C@@H](c1ccccc1)[C@@H]1CCCCN1` [l-MPH•HCl], in data set [2] (analyte l-MPH), the AUC was found to be 96.4 ng·h/mL, the Tmax was found to be 42 min and the Cmax was 51.5 ng/mL.

With `COC(=O)C(c1ccccc1)C1CCCCN1` (stereo not drawn) [unconjugated MPH, methyl 2-phenyl-2-(piperidin-2-yl)acetate], the “d:l Ratio Tmax” value in data set [2] was determined as 62%.

In the case of `COC(=O)[C@H](c1ccccc1)[C@H]1CCCCN1C(=O)OC[n+]1cccc(C(=O)N[C@H](C(=O)O)[C@@H](C)O)c1.[Cl-]` [d-MPH-CO2CH2-nicotinoyl-L-Thr, 3-(((1S,2R)-1-carboxy-2-hydroxypropyl)carbamoyl)-1-(((R)-2-(2-(R)-methoxy-2-oxo-1-phenylethyl)piperidine-1-carbonyloxy)methyl)pyridium chloride], in data set [2], the “d:l Ratio AUC” value was about 53% and the “d:l Ratio Cmax” value is “about 58%”.

Usually AUC(0-inf) stands for total exposure, with the tail of the curve extrapolated. Lower therefore signals less exposure. The term half-life denotes the time in which the quantity being followed falls by half. In the case of `COC(=O)[C@H](c1ccccc1)[C@H]1CCCCN1C(=O)OC[n+]1cccc(C(=O)N[C@@H](CO)C(=O)O)c1.[Cl-]` [d-MPH-CO2CH2-nicotinoyl-L-Ser chloride, 3-((S)-1-carboxy-2-hydroxyethylcarbamoyl)-1-(((R)-2-(2-(R)-methoxy-2-oxo-1-phenylethyl)piperidine-1-carbonyloxy)methyl)pyridium chloride], the “peak d-MPH exposure in the fed state vs fasted” value in data set [3] (analyte d-MPH, single oral 60 mg) is recorded as “slightly higher”. Further, the AUC(0-inf) was 309 ng·h/mL in data set [3] (human, oral, 60 mg, Fasted) and 84.2 ng·h/mL in data set [3] (human, oral, 60 mg, Fed). The half-life was 350 min in data set [3] (human, oral, 60 mg, Fasted) and 366 min in data set [3] (human, oral, 60 mg, Fed). For the same compound, the AUC(0-t) in data set [3] (human, oral, 60 mg, Fasted, read-out: AUC0-24 hr) came to 300 ng·h/mL; in data set [3] (human, oral, 60 mg, Fasted, read-out: AUC0-last), 306 ng·h/mL; in data set [3] (human, oral, 60 mg, Fed, read-out: AUC0-24 hr) it was 77.9 ng·h/mL; in data set [3] (human, oral, 60 mg, Fed, read-out: AUC0-last), 81.1 ng·h/mL. Also, the Tmax in data set [3] (human, oral, 60 mg, Fasted) came out at 30 min; in data set [3] (human, oral, 60 mg, Fed), 180 min. Further, the Cmax in data set [3] (human, oral, 60 mg, Fed) came to 10.2 ng/mL; in data set [3] (Fasted, single oral 60 mg, human adults) it was 75.6 ng/mL. Besides, the concentration at 24 h in data set [4] (both sexes, human, plasma, oral dose mixtures, adult humans, FIGS. 14-25, read-out: Plasma concentration of intact d-MPH-CO2CH2-nicotinoyl-L-Ser chloride at 24 hours post dose) is under 1 ng/mL. Besides, in data set [4] (dose 1 vs dose 7 plasma concentrations at 24 hours), the “Accumulation of intact d-MPH-CO2CH2-nicotinoyl-L-Ser chloride in the bloodstream after the 7th dose” value is listed as “negligible”. In addition, in data set [4] (oral dose mixtures, adult humans, FIGS. 14-25), the “Time until which plasma concentrations of intact d-MPH-CO2CH2-nicotinoyl-L-Ser chloride increased” value is recorded as “about 2 hours”.

Take `COC(=O)C(c1ccccc1)C1CCCCN1C(=O)OC[n+]1cccc(C(=O)N[C@@H](CO)C(=O)[O-])c1` (stereo partly drawn) [MPH-CO2CH2-nicotinoyl-L-Ser]: in data set [2], the “d:l Ratio Tmax” value is reported as 182%, the “d:l Ratio AUC” value came out at 73% and the “d:l Ratio Cmax” value was 94%.

Consider `COC(=O)[C@H](c1ccccc1)[C@H]1CCCCN1.Cl` [d-MPH•HCl, (2R,2′R)-(+)-Methylphenidate hydrochloride], for which, in data set [5], the Tmax was determined as 24 min. Further, the Tmax result in data set [5] (listed as unconjugated d-methylphenidate) is listed as “about 0.4 h”. In data set [6], the AUC0-1 h stood at 312.6 ng·h/mL, the AUC0-2 h was 534.9 ng·h/mL, the Cmax was determined as 541.8 ng/mL and the Tmax is 24 min. Also, in data set [2] (analyte d-MPH), the AUC was 119.2 ng·h/mL, the time to peak (Tmax) was 24 min and the highest concentration (Cmax) was found to be 98.9 ng/mL. Further, in data set [2], the “d:l Ratio AUC” value is on record as about 124% and the “d:l Ratio Cmax” value was “about 192%”. Also, in data set [7], the AUC0-1 h is 1110.8 ng·h/mL, the peak concentration (Cmax) is recorded as 2561.6 ng/mL and the Tmax came to 6 min.

On to `COC(=O)[C@@H](c1ccccc1)[C@@H]1CCCCN1C(=O)OC[n+]1cccc(C(=O)N[C@@H](CO)C(=O)[O-])c1` [l-MPH-CO2CH2-nicotinoyl-L-Ser], for which the “solubility in IPA/IPAc compared to d-MPH-CO2CH2-nicotinoyl-L-Ser” value in data set [8] is “significantly higher”.

`COC(=O)C(c1ccccc1)C1CCCCN1C(=O)OC[n+]1cccc(C(=O)N[C@H](C(=O)[O-])[C@@H](C)O)c1` (stereo partly drawn) [MPH-CO2CH2-nicotinoyl-L-Thr]: in data set [2], the “d:l Ratio Tmax” value came out at 57%, the “d:l Ratio AUC” value turned out to be 53% and the “d:l Ratio Cmax” value was found to be 58%.
